This is an account of results in patent US20120058541A1, “ENGINEERING RESISTANCE TO ALIPHATIC ALCOHOLS” (BUTAMAX(TM) ADVANCED BIOFUELS LLC, priority 2009, published 2012).

This experiment deals with L. plantarum PN0512.

Protocol: IC50 values were determined in shake flasks as follows. Duplicate glass test tubes containing 5 ml MRS medium plus 10 μg/ml chloramphenicol (MRS-Cm) were each inoculated with a single colony and grown for 24 h at 30° C. in a rollerdrum. 500 μl of each of these cultures were used to inoculate 25 ml MRS-Cm, which was grown for 16 h at 30° C. with shaking at 110 rpm. […] Cultures were grown at 30° C. with shaking at 110 rpm, and growth was measured by monitoring OD600. OD600 values that were clearly off the growth curve were discarded (less than 1% of values were discarded).
This is mathematically equivalent to drawing a line between (C1,I1) and (C2,I2) and finding the concentration at which that line intersects I=50%. An IC50 was calculated for each set of flasks inoculated from the same preculture. An average IC50 was also calculated.

On to `CCCCO` [Strain 1-butanol, 1-butanol], for which the “1-butanol IC90” value was determined as 2.3%.
